In one experiment the target is T1, flt-3 (Homo sapiens, UniProt P36888).
T1 construct: baculovirus expressed human Flt-3 kinase domain R571-S993
T1 sequence (P36888 571-993): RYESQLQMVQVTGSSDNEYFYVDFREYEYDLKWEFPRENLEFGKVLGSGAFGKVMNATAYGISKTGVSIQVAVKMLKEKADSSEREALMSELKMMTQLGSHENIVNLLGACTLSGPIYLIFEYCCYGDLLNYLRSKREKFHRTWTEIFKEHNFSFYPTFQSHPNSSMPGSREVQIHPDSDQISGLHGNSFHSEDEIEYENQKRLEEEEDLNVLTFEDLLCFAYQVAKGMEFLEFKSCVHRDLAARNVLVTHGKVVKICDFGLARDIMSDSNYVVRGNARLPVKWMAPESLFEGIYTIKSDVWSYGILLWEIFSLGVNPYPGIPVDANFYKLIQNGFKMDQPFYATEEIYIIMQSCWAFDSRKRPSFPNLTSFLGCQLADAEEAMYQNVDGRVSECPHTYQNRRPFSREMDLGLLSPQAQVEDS
In words: flt-3 Luciferase-Coupled Chemiluminescent Kinase assay (LCCA). It counts as biochemical. The method, then:
(§1) In the LCCA assays, kinase activity is measured as the percent ATP consumed following the kinase reaction using luciferase-luciferin-coupled chemiluminescence. Greiner 384-well white, clear bottom, medium-binding plates are used for LCCA. Briefly, the kinase reaction is initiated by mixing compounds, ATP and kinase in a 20 uL volume. The mixture is incubated at ambient temperature for 2-4 hrs. At the end of the kinase reaction, a 20 uL luciferase-luciferin mix is added and the chemiluminescent signal is read using a Wallac Victor^2 reader. The luciferase-luciferin mix consists of 50 mM HEPES, pH 7.8, 8.5 ug/mL oxalic acid (pH 7.8), 5 (or 50) mM DTT, 0.4% Triton X-100, 0.25 mg/mL coenzyme A, 63 uM AMP, 28 ug/mL luciferin and 40,000 units of light/mL luciferase. For the LCCA assays, total ATP consumption has been standardized to 25-45% and the IC50 values correlates well with those determined by radiometric assays.
Flt-3 biochemical activity was assessed using a Luciferase-Coupled Chemiluminescent Kinase assay (LCCA) format. Kinase activity was measured as the percent ATP remaining following the kinase reaction. Remaining ATP was detected by luciferase-luciferin-coupled chemiluminescence. Specifically, the reaction was initiated by mixing test compounds, 5 μM ATP, 3 μM poly-EY and 5 nM Flt-3 (baculovirus expressed human Flt-3 kinase domain R571-S993) in a 20 uL assay buffer (20 mM Tris-HCL pH7.5, 10 mM MgCl2, 0.01% Triton X-100, 1 mM DTT, 2 mM MnCl2). The mixture is incubated at ambient temperature for 3 hours after which 20 uL luciferase-luciferin mix is added and the chemiluminescent signal read using a Wallac Victor^2 reader. The luciferase-luciferin mix consists of 50 mM HEPES, pH 7.8, 8.5 ug/mL oxalic acid (pH 7.8), 5 (or 50) mM DTT, 0.4% Triton X-100, 0.25 mg/mL coenzyme A, 63 uM AMP, 28 ug/mL luciferin and 40,000 units of light/mL luciferase.

The target in another experiment is c-Kit (Homo sapiens, UniProt P10721). In words: c-Kit biochemical assay (AlphaScreen). The source says: (§2) AlphaScreen technology is a proximity assay which utilizes the increase in fluorescent signal occurring when donor and acceptor beads are close in proximity. Biotinylated poly(Glu,Tyr) 4:1 is used as the kinase substrate, in conjunction with streptavidin-coated donor beads and anti-phosphortyrosine antibody PY100-coated acceptor beads. Upon phosphorylation, the peptide substrate can bind to both donor and acceptor beads giving rise to an increase in fluorescence. Compounds, ATP, biotinylated poly(Glu, Tyr) and kinases are mixed in a volume of 20 uL for 1 hr at ambient temperature using Greiner 384-well white clear bottom medium binding plates. Following incubation a 10 uL solution containing […] AlphaScreen beads, 75 mM Hepes, pH 7.4, 300 mM NaCl, 120 mM EDTA, 0.3% BSA and 0.03% Tween-20 is added to each well. After 2-16 hr incubation of the beads, plates are read in a Perkin Elmer AlphaQuest reader. The IC50 values correlates well with those of radiometric assays.
c-Kit, sequence (P10721 26-976): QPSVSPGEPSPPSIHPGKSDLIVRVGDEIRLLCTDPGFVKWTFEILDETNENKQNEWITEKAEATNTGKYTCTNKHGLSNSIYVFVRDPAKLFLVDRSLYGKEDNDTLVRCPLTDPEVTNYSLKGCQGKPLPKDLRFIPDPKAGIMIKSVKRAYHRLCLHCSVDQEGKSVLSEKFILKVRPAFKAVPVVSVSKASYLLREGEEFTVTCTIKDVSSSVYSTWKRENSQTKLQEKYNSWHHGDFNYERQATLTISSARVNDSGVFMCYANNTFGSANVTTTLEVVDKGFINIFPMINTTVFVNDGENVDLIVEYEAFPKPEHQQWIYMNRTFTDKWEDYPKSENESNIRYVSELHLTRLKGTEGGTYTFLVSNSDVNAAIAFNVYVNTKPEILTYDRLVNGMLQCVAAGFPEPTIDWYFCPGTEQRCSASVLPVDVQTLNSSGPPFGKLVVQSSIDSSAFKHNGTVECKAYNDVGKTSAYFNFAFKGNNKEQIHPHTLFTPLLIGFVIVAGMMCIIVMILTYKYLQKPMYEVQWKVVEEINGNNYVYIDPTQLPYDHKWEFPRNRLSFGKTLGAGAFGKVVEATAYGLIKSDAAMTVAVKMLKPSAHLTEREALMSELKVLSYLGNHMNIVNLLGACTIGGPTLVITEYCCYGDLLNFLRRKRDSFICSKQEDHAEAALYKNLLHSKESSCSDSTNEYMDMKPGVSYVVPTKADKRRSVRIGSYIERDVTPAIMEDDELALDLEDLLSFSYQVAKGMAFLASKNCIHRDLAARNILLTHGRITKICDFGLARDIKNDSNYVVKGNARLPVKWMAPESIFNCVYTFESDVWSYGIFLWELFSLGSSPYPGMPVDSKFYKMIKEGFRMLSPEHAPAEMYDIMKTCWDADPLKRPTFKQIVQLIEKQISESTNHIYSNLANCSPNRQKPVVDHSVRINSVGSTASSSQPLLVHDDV
c-Kit biochemical activity was assessed using AlphaScreen™ (Perkin Elmer) technology, described above. Test compounds, ATP, biotinylated poly(Glu, Tyr) and c-Kit kinase were combined in a volume of 20 μL in a 384-well white, medium binding microtiter plate (Greiner). Reaction mixtures were incubated for 1 hr at ambient temperature. Reactions were quenched by addition of 10 uL of […] AlphaScreen bead suspension containing 75 mM Hepes, pH 7.4, 300 mM NaCl, 120 mM EDTA, 0.3% BSA and 0.03% Tween-20. After 16 hr incubation at ambient temperature plates were read using an AlphaQuest reader (Perkin Elmer).

Another experiment has as its target T2, EphB4 (Homo sapiens, UniProt P54760).
T2 sequence (P54760 16-987): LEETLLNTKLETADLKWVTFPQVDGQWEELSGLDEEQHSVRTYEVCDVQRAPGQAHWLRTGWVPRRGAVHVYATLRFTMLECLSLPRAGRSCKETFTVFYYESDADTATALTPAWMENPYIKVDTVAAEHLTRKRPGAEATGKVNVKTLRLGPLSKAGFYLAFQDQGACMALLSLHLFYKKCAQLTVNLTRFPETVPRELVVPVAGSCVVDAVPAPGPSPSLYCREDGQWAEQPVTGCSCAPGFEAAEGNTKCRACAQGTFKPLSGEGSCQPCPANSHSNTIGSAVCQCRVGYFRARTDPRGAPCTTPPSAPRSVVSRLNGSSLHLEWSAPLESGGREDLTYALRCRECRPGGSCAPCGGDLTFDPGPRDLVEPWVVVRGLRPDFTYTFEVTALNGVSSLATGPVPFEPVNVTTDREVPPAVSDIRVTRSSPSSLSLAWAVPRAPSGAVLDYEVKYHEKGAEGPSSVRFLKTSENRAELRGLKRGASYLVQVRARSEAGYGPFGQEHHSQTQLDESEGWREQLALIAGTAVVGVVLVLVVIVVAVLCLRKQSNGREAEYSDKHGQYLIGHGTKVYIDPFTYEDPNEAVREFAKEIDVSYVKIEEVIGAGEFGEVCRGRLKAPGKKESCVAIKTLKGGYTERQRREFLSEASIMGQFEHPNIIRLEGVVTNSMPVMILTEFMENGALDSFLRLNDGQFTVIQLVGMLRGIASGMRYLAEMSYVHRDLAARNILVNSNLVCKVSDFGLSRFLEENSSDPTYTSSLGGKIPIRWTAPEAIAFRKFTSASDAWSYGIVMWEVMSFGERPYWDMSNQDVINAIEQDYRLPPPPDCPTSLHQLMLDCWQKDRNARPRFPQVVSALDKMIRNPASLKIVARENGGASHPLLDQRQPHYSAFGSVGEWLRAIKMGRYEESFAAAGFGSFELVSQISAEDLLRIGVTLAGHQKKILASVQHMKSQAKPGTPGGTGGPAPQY
Description: EphB4 kinase inhibition assay. The experiment is classed as biochemical. How it is done:
(§3) Kinase activity and compound inhibition are investigated using one or more of the three assay formats described below. The ATP concentrations for each assay are selected to be close to the Michaelis-Menten constant (KM) for each individual kinase. Dose-response experiments are performed at 10 different inhibitor concentrations in a 384-well plate format. The data are fitted to four-parameter equation (2) below; where Y is the observed signal, X is the inhibitor concentration, Min is the background signal in the absence of enzyme (0% enzyme activity), Max is the signal in the absence of inhibitor (100% enzyme activity), IC50 is the inhibitor concentration at 50% enzyme inhibition and H represents the empirical Hill's slope to measure the cooperativity. Typically H is close to unity. Y=Min+(Max−Min)/(1+(X/IC50)^H) Equation (2) ^33P Phosphoryl Transfer Assay: […]
(§4) Greiner 384-well white, clear bottom, high binding plates are coated with 2 μg/well of protein or peptide substrate in a 50 μL volume overnight at ambient temperature. The coating buffer typically contains 40 μg/mL substrate, 22.5 mM Na2CO3, 27.5 mM NaHCO3, 150 mM NaCl and 3 mM NaN3. The coating solution is aspirated and the plates are washed once with 50 μL of assay buffer and padded dry. Subsequently compounds and enzymes are mixed with γ^33P-ATP (3.3 μCi/nmol) in a total volume of 20 uL in suitable assay buffers. The mixture is incubated at ambient temperature for 1.5-2.5 hrs and terminated by aspiration using a Molecular Devices EMBLA 96-head plate washer. The plates are subsequently washed 6-12 times with PBST or TBS buffer. Scintillation fluid (50 μl/well) is then added, the plates are sealed and activity assessed by liquid scintillation spectrometry using a Perkin Elmer MicroBeta TriLux.
as §1, §2

Another experiment deals with EGFR (Homo sapiens, UniProt P00533). In words: EGFR kinase inhibition assay. The experiment is classed as biochemical. How it is done: as §3, §4, §1, §2
EGFR, sequence (P00533 25-1210, species assumed): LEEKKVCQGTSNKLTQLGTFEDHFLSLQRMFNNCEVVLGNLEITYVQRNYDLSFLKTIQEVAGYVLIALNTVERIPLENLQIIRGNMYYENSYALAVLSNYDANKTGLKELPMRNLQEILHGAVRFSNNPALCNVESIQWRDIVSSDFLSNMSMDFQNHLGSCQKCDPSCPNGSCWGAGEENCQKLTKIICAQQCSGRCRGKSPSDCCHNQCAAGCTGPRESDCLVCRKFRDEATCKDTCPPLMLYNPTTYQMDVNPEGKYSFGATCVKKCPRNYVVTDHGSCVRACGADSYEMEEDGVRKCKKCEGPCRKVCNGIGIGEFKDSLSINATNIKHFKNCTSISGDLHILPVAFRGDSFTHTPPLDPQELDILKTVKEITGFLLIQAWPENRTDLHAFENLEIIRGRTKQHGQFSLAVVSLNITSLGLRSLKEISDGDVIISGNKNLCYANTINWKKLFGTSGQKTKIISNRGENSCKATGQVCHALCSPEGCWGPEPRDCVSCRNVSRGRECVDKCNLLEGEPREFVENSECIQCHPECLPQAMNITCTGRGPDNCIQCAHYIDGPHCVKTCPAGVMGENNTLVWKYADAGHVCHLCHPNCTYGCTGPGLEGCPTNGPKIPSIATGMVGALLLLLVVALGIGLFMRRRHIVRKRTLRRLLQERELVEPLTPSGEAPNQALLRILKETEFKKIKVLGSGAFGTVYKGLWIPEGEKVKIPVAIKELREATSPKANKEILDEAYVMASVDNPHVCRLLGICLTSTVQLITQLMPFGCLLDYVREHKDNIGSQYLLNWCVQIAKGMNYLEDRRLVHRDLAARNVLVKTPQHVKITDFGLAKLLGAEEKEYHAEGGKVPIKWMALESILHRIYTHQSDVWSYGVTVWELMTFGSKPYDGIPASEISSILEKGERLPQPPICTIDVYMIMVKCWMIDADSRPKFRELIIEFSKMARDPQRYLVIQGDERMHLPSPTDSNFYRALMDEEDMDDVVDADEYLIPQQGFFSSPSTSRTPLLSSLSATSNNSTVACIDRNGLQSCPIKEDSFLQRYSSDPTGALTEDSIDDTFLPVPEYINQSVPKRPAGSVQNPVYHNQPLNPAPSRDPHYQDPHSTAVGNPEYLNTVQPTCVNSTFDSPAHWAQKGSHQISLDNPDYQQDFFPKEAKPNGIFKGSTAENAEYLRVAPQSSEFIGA

The structures appear in SMILES notation.

As to `CN1CCN(c2ccc3nc(-c4cc(/C=C/c5ccc(O)cc5)[nH]n4)[nH]c3c2)CC1` [Entry 1, 4-((E)-2-{3-[6-(4-methylpiperazin-1-yl)-1H-benzimidazol-2-yl]-1H-pyrazol-5-yl}ethenyl)phenol], the IC50 against flt-3 is less than 50 nM; at c-Kit it was less than 50 nM; at EphB4 it was 0.5 to 5 µM; against EGFR, greater than 5 µM.

Regarding `CCN1CCN(c2ccc3[nH]c(-c4cc(-c5ccc(NC(=O)Nc6ccc(Cl)c(C(F)(F)F)c6)cc5)[nH]n4)nc3c2)CC1` [Entry 2, N-[4-chloro-3-(trifluoromethyl)phenyl]-N′-(4-{3-[5-(4-ethylpiperazin-1-yl)-1H-benzimidazol-2-yl]-1H-pyrazol-5-yl}phenyl)urea], the concentration for half-maximal inhibition (IC50) on flt-3 is less than 50 nM; on c-Kit, less than 50 nM; against EphB4, greater than 5 µM; at EGFR, greater than 5 µM.

Regarding `CCc1cccc(NC(=O)Nc2ccc(-c3cc(-c4nc5cc(N6CCN(CC)CC6)ccc5[nH]4)n[nH]3)cc2)c1` [Entry 3, N-(3-ethylphenyl)-N′-(4-{3-[5-(4-ethylpiperazin-1-yl)-1H-benzimidazol-2-yl]-1H-pyrazol-5-yl}phenyl)urea], the IC50 on flt-3 is less than 50 nM; at c-Kit, less than 50 nM; on EphB4 it was 0.5 to 5 µM; against EGFR, greater than 5 µM.

In the case of `CCN1CCN(c2ccc3[nH]c(-c4cc(-c5ccc(NC(=O)Nc6cccc(C(F)(F)F)c6)cc5)[nH]n4)nc3c2)CC1` [Entry 4, N-(4-{3-[5-(4-ethylpiperazin-1-yl)-1H-benzimidazol-2-yl]-1H-pyrazol-5-yl}phenyl)-N′-[3-(trifluoromethyl)phenyl]urea], the IC50 is less than 50 nM against flt-3, less than 50 nM at c-Kit, 0.5 to 5 µM at EphB4 and greater than 5 µM at EGFR.

For `CC(=O)c1cccc(NC(=O)Nc2ccc(-c3cc(-c4nc5cc(N6CCN(C)CC6)ccc5[nH]4)n[nH]3)cc2)c1` [Entry 5, N-(3-acetylphenyl)-N′-(4-{3-[5-(4-methylpiperazin-1-yl)-1H-benzimidazol-2-yl]-1H-pyrazol-5-yl}phenyl)urea], the IC50 was less than 50 nM at flt-3, less than 50 nM against c-Kit, 0.5 to 5 µM at EphB4 and greater than 5 µM against EGFR.

With `CN1CCN(c2ccc3[nH]c(-c4cc(-c5ccc(NC(=O)Nc6ccc(Cl)c(Cl)c6)cc5)[nH]n4)nc3c2)CC1` [Entry 6, N-(3,4-dichlorophenyl)-N′-(4-{3-[5-(4-methylpiperazin-1-yl)-1H-benzimidazol-2-l]-1H-pyrazol-5-yl}phenyl)urea], the IC50 is less than 50 nM against flt-3, less than 50 nM against c-Kit, greater than 5 µM at EphB4 and greater than 5 µM at EGFR.

Consider `CN1CCN(c2ccc3[nH]c(-c4cc(-c5ccc(NC(=O)Nc6cccc(Cl)c6)cc5)[nH]n4)nc3c2)CC1` [Entry 10, N-(3-chlorophenyl)-N′-(4-{3-[5-(4-methylpiperazin-1-yl)-1H-benzimidazol-2-yl]-1H-pyrazol-yl}phenyl)urea], for which the IC50 on flt-3 was less than 50 nM; on c-Kit, less than 50 nM; on EphB4, greater than 5 µM.

Take `O=C(Nc1ccccc1)Nc1ccc(-c2cc(-c3nc4ccccc4[nH]3)n[nH]2)cc1` [Entry 33, N-{4-[3-(1H-benzimidazol-2-yl)-1H-pyrazol-5-yl]phenyl}-N′-phenylurea]: the half-inhibitory concentration (IC50) at c-Kit was less than 50 nM; on EphB4 it was greater than 5 µM; at EGFR, greater than 5 µM.

On to `c1ccc(-c2cc(-c3nc4ccccc4[nH]3)n[nH]2)cc1` [Entry 75, 2-(5-phenyl-1H-pyrazol-3-yl)-1H-benzimidazole], for which the IC50 against flt-3 and on c-Kit was 500 to 5000 nM each time.

For the compound `Nc1ccc(-c2cc(-c3nc4ccccc4[nH]3)n[nH]2)cc1` [Entry 77, 4-[3-(1H-benzimidazol-2-yl)-1H-pyrazol-5-yl]aniline], the IC50 against flt-3 and against c-Kit was 500 to 5000 nM each time.

Turning to `Oc1ccc(/C=C/c2cc(-c3cccc(-c4ccccc4)c3)[nH]n2)cc1` [Entry 78, 4-[(E)-2-(5-biphenyl-3-yl-1H-pyrazol-3-yl)ethenyl]phenol], the IC50 against flt-3 and against c-Kit was 500 to 5000 nM in each case.

Usually IC50 stands for the concentration that inhibits the measured activity by half. A higher IC50 goes with lower potency.

The values above are taken from patent US8710038B2, “Pyrazole kinase modulators and methods of use” (Exelixis, Inc., priority 2004, dated 2014).
